Data: the NIST ThermoML archive (doi:10.1016/j.jct.2019.02.020)

Assay: mn = molality of the nth substance listed, in mol/kg
Conditions: 100 kPa, Liquid; for viscosity: Falling or rolling sphere viscometry; for mass density: Vibrating tube method

O=S(=O)([O-])[O-].[O]=[V+2] [oxovanadium(IV) sulfate] + O
Conditions	mass density, 303.15 K [kg/m3]	viscosity, 303.15 K [mPa·s]	viscosity, 308.15 K [mPa·s]	viscosity, 313.15 K [mPa·s]	viscosity, 318.15 K [mPa·s]
m1 = 0.2501	1031.66	0.9378	0.8442	0.764	0.6958
m1 = 0.5	1066.39	1.108	0.9929	0.897	0.8143
m1 = 0.7507	1100.34	1.311	1.171	1.053	0.9528
m1 = 0.9964	1132.1	1.55	1.379	1.235	1.113
m1 = 1.25	1165.09	1.859	1.646	1.468	1.319
m1 = 1.5	1196.42	2.223	1.959	1.74	1.556
m1 = 1.75	1226.74	2.66	2.334	2.064	1.838
m1 = 2	1256.15	3.18	2.783	2.445	2.168
m1 = 2.249	1284.81	3.824	3.32	2.916	2.575
m1 = 2.499	1312.66	4.58	3.953	3.446	3.029
m1 = 2.75	1339.67	5.544	4.758	4.126	3.608
